Data as given in patent US20110039721A1, “METHOD FOR PREDICTION ABOUT CARCINOGENICITY OF SUBSTANCE IN RODENT” (Chemicals Evaluation and Research Institute, priority 2007, published 2011).

Key:
[1] = classification of the substance (M+/M−); cited from earlier work
rodent = details: classification of the substance (C+/C−); cited from earlier work
liver = details: classification of the substance (Cr+/Cr−); cited from earlier work
[2] = tested on: mRNA expressed from the genes (A) to (D) in rat liver; assay: Behavior of genes (mRNA expression level, oligo-DNA microarray) in rat liver after 28-day oral administration; format: in vivo; details: for Behavior of gene caused by administration of chemical substance, Gene No. 4846 / Behavior of gene caused by administration of chemical substance, Gene No. 2026 / Behavior of gene caused by administration of chemical substance, Gene No. 4218 / Behavior of gene caused by administration of chemical substance, Gene No. 6182 / Behavior of gene caused by administration of chemical substance, Gene No. 5600: gene group (A); for Behavior of gene caused by administration of chemical substance, Gene No. 4846: Unigene No. Rn.144554; for Behavior of gene caused by administration of chemical substance, Gene No. 2026 / Behavior of gene caused by administration of chemical substance, Gene No. 4218: Unigene No. Rn.167075; for Behavior of gene caused by administration of chemical substance, Gene No. 6182: Unigene No. Rn.5834; for Behavior of gene caused by administration of chemical substance, Gene No. 5600: Unigene No. Rn.9836; for Behavior of gene caused by administration of chemical substance, Gene No. 1494 / Behavior of gene caused by administration of chemical substance, Gene No. 2045 / Behavior of gene caused by administration of chemical substance, Gene No. 2203: gene group (B); for Behavior of gene caused by administration of chemical substance, Gene No. 1494: Unigene No. Rn.1430; for Behavior of gene caused by administration of chemical substance, Gene No. 2045: Unigene No. Rn.19329; for Behavior of gene caused by administration of chemical substance, Gene No. 2203: Unigene No. Rn.21240; for Behavior of gene caused by administration of chemical substance, Gene No. 533 / Behavior of gene caused by administration of chemical substance, Gene No. 725 / Behavior of gene caused by administration of chemical substance, Gene No. 1163 / Behavior of gene caused by administration of chemical substance, Gene No. 4973 / Behavior of gene caused by administration of chemical substance, Gene No. 4095 / Behavior of gene caused by administration of chemical substance, Gene No. 1334 / Behavior of gene caused by administration of chemical substance, Gene No. 6620 / Behavior of gene caused by administration of chemical substance, Gene No. 6303 / Behavior of gene caused by administration of chemical substance, Gene No. 5878 / Behavior of gene caused by administration of chemical substance, Gene No. 1131 / Behavior of gene caused by administration of chemical substance, Gene No. 1562 / Behavior of gene caused by administration of chemical substance, Gene No. 1741 / Behavior of gene caused by administration of chemical substance, Gene No. 893 / Behavior of gene caused by administration of chemical substance, Gene No. 6026 / Behavior of gene caused by administration of chemical substance, Gene No. 154 / Behavior of gene caused by administration of chemical substance, Gene No. 1993 / Behavior of gene caused by administration of chemical substance, Gene No. 813 / Behavior of gene caused by administration of chemical substance, Gene No. 2494 / Behavior of gene caused by administration of chemical substance, Gene No. 2546 / Behavior of gene caused by administration of chemical substance, Gene No. 3776 / Behavior of gene caused by administration of chemical substance, Gene No. 3929 / Behavior of gene caused by administration of chemical substance, Gene No. 1119 / Behavior of gene caused by administration of chemical substance, Gene No. 6742 / Behavior of gene caused by administration of chemical substance, Gene No. 5634: gene group (C); for Behavior of gene caused by administration of chemical substance, Gene No. 533: Unigene No. Rn.106184; for Behavior of gene caused by administration of chemical substance, Gene No. 725: Unigene No. Rn.108075; for Behavior of gene caused by administration of chemical substance, Gene No. 1163: Unigene No. Rn.11766; for Behavior of gene caused by administration of chemical substance, Gene No. 4973: Unigene No. Rn.118529; for Behavior of gene caused by administration of chemical substance, Gene No. 4095: Unigene No. Rn.119024; for Behavior of gene caused by administration of chemical substance, Gene No. 1334 / Behavior of gene caused by administration of chemical substance, Gene No. 6620: Unigene No. Rn.120914; for Behavior of gene caused by administration of chemical substance, Gene No. 6303: Unigene No. Rn.123063; for Behavior of gene caused by administration of chemical substance, Gene No. 5878: Unigene No. Rn.143213; for Behavior of gene caused by administration of chemical substance, Gene No. 1131: Unigene No. Rn.144946; for Behavior of gene caused by administration of chemical substance, Gene No. 1562: Unigene No. Rn.14744; for Behavior of gene caused by administration of chemical substance, Gene No. 1741: Unigene No. Rn.1647; for Behavior of gene caused by administration of chemical substance, Gene No. 893: Unigene No. Rn.164817; for Behavior of gene caused by administration of chemical substance, Gene No. 6026: Unigene No. Rn.167685; for Behavior of gene caused by administration of chemical substance, Gene No. 154: Unigene No. Rn.185941; for Behavior of gene caused by administration of chemical substance, Gene No. 1993: Unigene No. Rn.18728; for Behavior of gene caused by administration of chemical substance, Gene No. 813: Unigene No. Rn.201760; for Behavior of gene caused by administration of chemical substance, Gene No. 2494: Unigene No. Rn.23969; for Behavior of gene caused by administration of chemical substance, Gene No. 2546: Unigene No. Rn.24561; for Behavior of gene caused by administration of chemical substance, Gene No. 3776: Unigene No. Rn.43232; for Behavior of gene caused by administration of chemical substance, Gene No. 3929: Unigene No. Rn.4620; for Behavior of gene caused by administration of chemical substance, Gene No. 1119: Unigene No. Rn.9757; for Behavior of gene caused by administration of chemical substance, Gene No. 6742: Unigene No. Rn.9779; for Behavior of gene caused by administration of chemical substance, Gene No. 5634: Unigene No. Rn.9862; for Behavior of gene caused by administration of chemical substance, Gene No. 5726: gene group (D), Unigene No. Rn.9939
Summary of the method: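 Oral gavage, once daily × 28 days; male F344 SPF rats, 5 wk, n=4/group; vehicle controls given equal solvent volume. Liver excised day 28, total RNA purified. Significance: ≥1.5× or ≤1/1.5 of vehicle, direction concordant with other carcinogens.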

IC(I)I [TS039, Iodoform]
Mutagenicity by Ames test [1]: M+
Carcinogenicity (rodent): C−
Liver carcinogenicity (liver): Cr−
Behavior of gene caused by administration of chemical substance, Gene No. 4846 [2]: −
Behavior of gene caused by administration of chemical substance, Gene No. 2026 [2]: −
Behavior of gene caused by administration of chemical substance, Gene No. 4218 [2]: −
Behavior of gene caused by administration of chemical substance, Gene No. 6182 [2]: −
Behavior of gene caused by administration of chemical substance, Gene No. 5600 [2]: −
Behavior of gene caused by administration of chemical substance, Gene No. 1494 [2]: +
Behavior of gene caused by administration of chemical substance, Gene No. 2045 [2]: −
Behavior of gene caused by administration of chemical substance, Gene No. 2203 [2]: −
Behavior of gene caused by administration of chemical substance, Gene No. 533 [2]: −
Behavior of gene caused by administration of chemical substance, Gene No. 725 [2]: −
Behavior of gene caused by administration of chemical substance, Gene No. 1163 [2]: −
Behavior of gene caused by administration of chemical substance, Gene No. 4973 [2]: −
Behavior of gene caused by administration of chemical substance, Gene No. 4095 [2]: −
Behavior of gene caused by administration of chemical substance, Gene No. 1334 [2]: +
Behavior of gene caused by administration of chemical substance, Gene No. 6620 [2]: +
Behavior of gene caused by administration of chemical substance, Gene No. 6303 [2]: +
Behavior of gene caused by administration of chemical substance, Gene No. 5878 [2]: −
Behavior of gene caused by administration of chemical substance, Gene No. 1131 [2]: −
Behavior of gene caused by administration of chemical substance, Gene No. 1562 [2]: −
Behavior of gene caused by administration of chemical substance, Gene No. 1741 [2]: +
Behavior of gene caused by administration of chemical substance, Gene No. 893 [2]: +
Behavior of gene caused by administration of chemical substance, Gene No. 6026 [2]: −
Behavior of gene caused by administration of chemical substance, Gene No. 154 [2]: +
Behavior of gene caused by administration of chemical substance, Gene No. 1993 [2]: −
Behavior of gene caused by administration of chemical substance, Gene No. 813 [2]: −
Behavior of gene caused by administration of chemical substance, Gene No. 2494 [2]: −
Behavior of gene caused by administration of chemical substance, Gene No. 2546 [2]: −
Behavior of gene caused by administration of chemical substance, Gene No. 3776 [2]: −
Behavior of gene caused by administration of chemical substance, Gene No. 3929 [2]: −
Behavior of gene caused by administration of chemical substance, Gene No. 1119 [2]: −
Behavior of gene caused by administration of chemical substance, Gene No. 6742 [2]: +
Behavior of gene caused by administration of chemical substance, Gene No. 5634 [2]: +
Behavior of gene caused by administration of chemical substance, Gene No. 5726 [2]: −

Cn1c(N)nc2ncc(-c3ccccc3)cc21 [TS045, 2-amino-1-methyl-6-phenylimidazo[4,5-b]-pyridine]
Mutagenicity by Ames test [1]: M+
Carcinogenicity (rodent): C+
Liver carcinogenicity (liver): Cr−
Behavior of gene caused by administration of chemical substance, Gene No. 4846 ([2]; mRNA vs vehicle control group): −
Behavior of gene caused by administration of chemical substance, Gene No. 2026 ([2]; mRNA vs vehicle control group): −
Behavior of gene caused by administration of chemical substance, Gene No. 4218 ([2]; mRNA vs vehicle control group): −
Behavior of gene caused by administration of chemical substance, Gene No. 6182 ([2]; mRNA vs vehicle control group): −
Behavior of gene caused by administration of chemical substance, Gene No. 5600 ([2]; mRNA vs vehicle control group): −
Behavior of gene caused by administration of chemical substance, Gene No. 1494 ([2]; mRNA vs vehicle control group): −
Behavior of gene caused by administration of chemical substance, Gene No. 2045 ([2]; mRNA vs vehicle control group): +
Behavior of gene caused by administration of chemical substance, Gene No. 2203 ([2]; mRNA vs vehicle control group): +
Behavior of gene caused by administration of chemical substance, Gene No. 533 ([2]; mRNA vs vehicle control group): −
Behavior of gene caused by administration of chemical substance, Gene No. 725 ([2]; mRNA vs vehicle control group): −
Behavior of gene caused by administration of chemical substance, Gene No. 1163 ([2]; mRNA vs vehicle control group): −
Behavior of gene caused by administration of chemical substance, Gene No. 4973 ([2]; mRNA vs vehicle control group): −
Behavior of gene caused by administration of chemical substance, Gene No. 4095 ([2]; mRNA vs vehicle control group): −
Behavior of gene caused by administration of chemical substance, Gene No. 1334 ([2]; mRNA vs vehicle control group): −
Behavior of gene caused by administration of chemical substance, Gene No. 6620 ([2]; mRNA vs vehicle control group): −
Behavior of gene caused by administration of chemical substance, Gene No. 6303 ([2]; mRNA vs vehicle control group): −
Behavior of gene caused by administration of chemical substance, Gene No. 5878 ([2]; mRNA vs vehicle control group): −
Behavior of gene caused by administration of chemical substance, Gene No. 1131 ([2]; mRNA vs vehicle control group): −
Behavior of gene caused by administration of chemical substance, Gene No. 1562 ([2]; mRNA vs vehicle control group): −
Behavior of gene caused by administration of chemical substance, Gene No. 1741 ([2]; mRNA vs vehicle control group): −
Behavior of gene caused by administration of chemical substance, Gene No. 893 ([2]; mRNA vs vehicle control group): −
Behavior of gene caused by administration of chemical substance, Gene No. 6026 ([2]; mRNA vs vehicle control group): −
Behavior of gene caused by administration of chemical substance, Gene No. 154 ([2]; mRNA vs vehicle control group): −
Behavior of gene caused by administration of chemical substance, Gene No. 1993 ([2]; mRNA vs vehicle control group): −
Behavior of gene caused by administration of chemical substance, Gene No. 813 ([2]; mRNA vs vehicle control group): −
Behavior of gene caused by administration of chemical substance, Gene No. 2494 ([2]; mRNA vs vehicle control group): +
Behavior of gene caused by administration of chemical substance, Gene No. 2546 ([2]; mRNA vs vehicle control group): −
Behavior of gene caused by administration of chemical substance, Gene No. 3776 ([2]; mRNA vs vehicle control group): −
Behavior of gene caused by administration of chemical substance, Gene No. 3929 ([2]; mRNA vs vehicle control group): −
Behavior of gene caused by administration of chemical substance, Gene No. 1119 ([2]; mRNA vs vehicle control group): −
Behavior of gene caused by administration of chemical substance, Gene No. 6742 ([2]; mRNA vs vehicle control group): −
Behavior of gene caused by administration of chemical substance, Gene No. 5634 ([2]; mRNA vs vehicle control group): −
Behavior of gene caused by administration of chemical substance, Gene No. 5726 ([2]; mRNA vs vehicle control group): +
